Data from paper PMC8769072, “Proteome‐scale mapping of binding sites in the unstructured regions of the human proteome” (Molecular Systems Biology, 2022).

Tested on: immobilized GST-tagged bait protein domains
Test: ProP-PD phage selections (HD2 P8, sublibraries, HD2 P3, HD1 P8) with NGS and confidence level
Format: binding, human
Conditions: for HD2_nucleus confidence: library HD2 P8 nucleus
[1] = HD2 library, bait TSG101_UEV__Q99816_1_145, known motif instance of the benchmarking set found (TRUE) or not found (FALSE) among selected peptides
[2] = bait CLTC_Clathrin-propeller__Q00610_1_364, library HD2, benchmarking set of validated motif instances, TRUE = motif instance recovered in the ProP-PD selection
[3] = HD2 library, bait SUMO1_SUMO__P63165_1_101, known motif instance of the benchmarking set found (TRUE) or not found (FALSE) among selected peptides
[4] = library HD2, bait EPS15_EH__P42566_121_215, whether the validated benchmark motif instance was recovered in the ProP-PD selection (TRUE/FALSE)
[5] = library HD2, bait EIF4E_eIF4E__P06730_1_217, whether the validated benchmark motif instance was recovered in the ProP-PD selection (TRUE/FALSE)
[6] = HD2 library, bait TNKS_TANK-peptide-bind__O95271_174_649, known motif instance of the benchmarking set found (TRUE) or not found (FALSE) among selected peptides
[7] = library HD2, bait WDR5_WD_1234567_P61964_21_334, validated benchmark motif instance, in_library_check TRUE, TRUE/FALSE = instance recovered in ProP-PD selection
[8] = library HD2, bait TSG101_UEV__Q99816_1_145, validated benchmark motif instance, in_library_check TRUE, TRUE/FALSE = instance recovered in ProP-PD selection
[9] = library HD2, bait VASP_EVH1__P50552_1_114, validated benchmark motif instance, in_library_check TRUE, TRUE/FALSE = instance recovered in ProP-PD selection
[10] = library HD2, bait EPS15_EH__P42566_121_215, best matching peptide
[11] = library HD2, bait EPS15_EH__P42566_121_215, confidence level of best matching peptide (4 High, 2-3 Medium, 1 Low)
[12] = library HD2, bait USP7_MATH-TRAF__Q93009_53_206, validated benchmark motif instance, in_library_check TRUE, TRUE/FALSE = instance recovered in ProP-PD selection
[13] = bait KPNA4_Arm (O00629 68-487), HD2 library, benchmark motif instance recovered in the ProP-PD selection (TRUE/FALSE)

Substance: PAPALPPKPPKPTTVA
- best_specificity (bait CRK_SH3_1_P46108_124_198, library HD2, best matching peptide): 1
- best_confidence (bait CRK_SH3_1_P46108_124_198, library HD2, confidence level of best matching peptide (4 = High, 2 or 3 = Medium, 1 = Low)): 2

Substance: PAPAPLPPPSAPSLQPSRKL
- motif_found [1]: FALSE

Substance: PATKEISLLDLEDFTPPSV [AP3B2]
- motif_found [2]: FALSE

Substance: PEISLEAEPIELVETAGDEIVD
- motif_found [3]: FALSE

Substance: PFEEPTCINPFEMDSDSGP
- motif_found [4]: FALSE

Substance: PFSEQASLLDLDFDPLPPV [BIN1]
- motif_found [2]: FALSE

Substance: PGADVVDLTLDSSSSS
- best_confidence (bait SUMO1_SUMO__P63165_1_101, HD2 library, confidence level (1-4) of best matching selected peptide): 2
- best_specificity (bait SUMO1_SUMO__P63165_1_101, HD2 library, specificity score of best matching selected peptide): 1
- motif_found (bait SUMO1_SUMO__P63165_1_101, HD2 library, whether the validated benchmark motif instance was recovered in the ProP-PD selection (TRUE/FALSE)): TRUE

Substance: PGGGHPAPSWVAFAHT
- HD2 confidence (bait AP2B1_adaptin__P63010_700_937, HD2 P8 selection, non primary paralogue peptide match, confidence level -4 to 4: 4 = High, 3 or 2 = Medium, 1 = Low, 0 = Filtered/Noise): 4

Substance: PGGTRIIYDRKFLLDRRNSPM
- motif_found [5]: FALSE

Substance: PGGTRIIYDRKFLLECKNSPI
- motif_found [5]: FALSE

Substance: PGPPAPNTNPFLL------
- motif_found [4]: FALSE

Substance: PGSAPPPQAQGPPYPTYPGYPGYCQ,QAQGPPYPTYPGY [PDCD6IP]
- motif_found (bait CEP55_EABR__Q53EZ4_160_217, library HD2, benchmarking set of validated motif instances, TRUE = motif instance recovered in the ProP-PD selection): FALSE

Substance: PIPHDGNLYPRLYPELSQY [SDCBP 45-49]
- motif_found (HD2 library, bait PDCD6IP_Alix-V-domain__Q8WUM4_360_702, benchmark motif instance, in_library_check FALSE, in_library_coverage 0): FALSE

Substance: PLIDLPLIDFCDTPEA
- HD2_nc confidence (bait CLTC_Clathrin-propeller__Q00610_1_364, HD2 P8 nucleocytoplasmic sublibrary, confidence level (4 = High, 2-3 = Medium, 1 = Low)): 4
- HD2_nc mean counts (bait CLTC_Clathrin-propeller__Q00610_1_364, HD2 P8 nucleocytoplasmic sublibrary, mean NGS counts over replicate selections): 154.7
- HD2_nc count proportions (bait CLTC_Clathrin-propeller__Q00610_1_364, HD2 P8 nucleocytoplasmic sublibrary, mean proportion of NGS counts): 0.002602

Substance: PLTKDVSLLDLDDFNPVST [AP3B1]
- motif_found [2]: FALSE

Substance: PLYTSPSLPNITLGLP
- best_specificity (bait ANKRA2_Ank__Q9H9E1_142_313, library HD2, best matching peptide): 1
- best_confidence (bait ANKRA2_Ank__Q9H9E1_142_313, library HD2, confidence level of best matching peptide (4 = High, 2 or 3 = Medium, 1 = Low)): 3

Substance: PMLPDLTLEAWPSTDK
- confidence (library HD, bait ANKRA2_Ank__Q9H9E1_142_313, ProP-PD peptides with disease-related mutations): 3

Substance: PPAEEPEARPDGEGSPGKARPG
- motif_found [6]: FALSE

Substance: PPAGLNSSWVELPMNSSNG
- motif_found (bait MAP1LC3B_ATG8 (Q9GZQ8 2-119), HD2 library, benchmark motif instance recovered in the ProP-PD selection (TRUE/FALSE)): FALSE

Substance: PPAPVNDEPIVIED-------
- motif_found [3]: FALSE

Substance: PPDTKLSKLDVLLLAT
- HD2_nucleus confidence (bait SIN3A_PAH__Q96ST3_295_383): 4

Substance: PPGPPPPYHAHAHLHH
- HD confidence (bait YAP1_WW_1_P46937_169_207, library HD): 3
- p3_HD2 confidence (bait YAP1_WW_1_P46937_169_207, library HD2 P3): 2
- p3_HD2 count proportions (bait YAP1_WW_1_P46937_169_207, library HD2 P3, mean normalised NGS counts): 0.001797
- p3_HD2 mean counts (bait YAP1_WW_1_P46937_169_207, library HD2 P3, mean raw NGS counts, all selections): 44.67
- HD2 confidence (bait YAP1_WW_1_P46937_169_207, library HD2 P8): 4
- HD2_nucleus confidence (bait YAP1_WW_1_P46937_169_207): 4
- HD count proportions (bait YAP1_WW_1_P46937_169_207, library HD, mean normalised NGS counts): 0.02186
- HD mean counts (bait YAP1_WW_1_P46937_169_207, library HD, mean raw NGS counts, all selections): 187.3

Substance: PPLNPHGAARAEVYLRKCTFD
- motif_found [7]: FALSE

Substance: PPLNPHGSARAEVHLRKSAFD
- motif_found [7]: FALSE

Substance: PPMGEVVTPTAPQEPPESVR
- motif_found [8]: FALSE

Substance: PPPEDFPLPPPPLAGDGDD
- motif_found [9]: FALSE

Substance: PPPIEESFPPAPLEEEIFP
- motif_found [9]: FALSE

Substance: PPPPPEDFPLPPPPLAGDG
- motif_found [9]: FALSE

Substance: PPRLPELAPTAPLPYPAPEA
- motif_found [1]: FALSE

Substance: PQLPHLQRSPPDGQSF
- best_specificity (HD2 library, bait TNKS_TANK-peptide-bind__O95271_174_649, best matching selected peptide): 1
- best_confidence (HD2 library, bait TNKS_TANK-peptide-bind__O95271_174_649, confidence level of best matching selected peptide): 2
- motif_found [6]: TRUE

Substance: PQPKLPYLPTFPFSMP
- HD2 confidence (bait ANKRA2_Ank__Q9H9E1_142_313, HD2 P8 selection, confidence level -4 to 4: 4 = High, 3 or 2 = Medium, 1 = Low, 0 = Filtered/Noise): 2

Substance: PQYLNPFDEPEAFVTI
- best_specificity [10]: 1
- best_confidence [11]: 2
- motif_found [4]: TRUE

Substance: PREHQTGSARSEGYYPISKKE
- motif_found [7]: FALSE

Substance: PSENSNEFEWEDDLPKPKTTEVIR
- motif_found (library HD2, bait KLC1_TPR__Q07866_203_497, whether the validated benchmark motif instance was recovered in the ProP-PD selection (TRUE/FALSE)): FALSE

Substance: PSNPDLDAGVSEHSGDWLD
- motif_found [12]: FALSE

Substance: PSTNPFVAAAGPSVAS
- best_specificity [10]: 1
- best_confidence [11]: 2
- motif_found [4]: TRUE

Substance: PSTRKDYPAAKRVKLDSVRVLR
- motif_found [13]: FALSE

Substance: PVLEKDDLMDMDASQQNLF [HIP1]
- motif_found [2]: FALSE

Substance: PYGDDMTVRKQPEGNPKPDIIE
- motif_found [6]: FALSE

Substance: QASALSFPAPPSRPLPPDPV [ADAM15]
- motif_found (bait CRK_SH3_1_P46108_124_198, library HD2, benchmarking set of validated motif instances, TRUE = motif instance recovered in the ProP-PD selection): FALSE

Substance: QDLLELKSVIKLQAWWRGTMIRR,DLLELKSVIKLQAWWRGTMIRREIGGFKMPK [IQCG 397-411]
- motif_found (HD2 library, bait CALM1_EF-hand__P0DP23_2_149, benchmark motif instance, in_library_check FALSE, in_library_coverage 0): FALSE

Substance: QDYNETDWSQEFISEVTDP
- motif_found (bait PEX14_Pex14__O75381_16_84, HD2 library, whether the validated benchmark motif instance was recovered in the ProP-PD selection (TRUE/FALSE)): FALSE

Substance: QELLSVGSKRRRTGGSLRGN
- motif_found [13]: FALSE

Substance: QELQEEKPSSSHLVSRPST
- motif_found [12]: FALSE

Substance: QENMRSSPNPFITGLTRTN
- motif_found [4]: FALSE

Substance: QEPPESVRPSAPPAELEVQA
- motif_found [8]: FALSE

Substance: QERPLTNKLKRKRRPTSGLHPE
- motif_found [13]: FALSE

Substance: QFSLYTSPSLPNISLGLQATVTVT [HDAC5]
- motif_found (bait ANKRA2_Ank__Q9H9E1_142_313, library HD2, benchmarking set of validated motif instances, TRUE = motif instance recovered in the ProP-PD selection): TRUE
